# Experimental data from PubChem BioAssay AID1259407 (Chemical Carcinogenesis Research Information System (CCRIS), 2018).
# Active and inactive are the calls of the source. No rule for the calls is given here.
# Test system: CCRIS mutagenicity, Ames/micronucleus/aberration tests
# Assay: CCRIS mutagenicity studies
# [1] = Test System: AMES SALMONELLA TYPHIMURIUM, Strain/Indicator: TA100, Metabolic Activation: NONE, Method: STANDARD PLATE
# [2] = Test System: AMES SALMONELLA TYPHIMURIUM, Strain/Indicator: TA98, Metabolic Activation: NONE, Method: PREINCUBATION
# [3] = Test System: AMES SALMONELLA TYPHIMURIUM, Strain/Indicator: TA100, Metabolic Activation: NONE, Method: PREINCUBATION
# [4] = Test System: AMES SALMONELLA TYPHIMURIUM, Strain/Indicator: TA98, Metabolic Activation: NONE, Method: STANDARD PLATE
# [5] = Test System: AMES SALMONELLA TYPHIMURIUM, Strain/Indicator: TA98, Metabolic Activation: RAT, LIVER, S-9, AROCLOR 1254, Method: STANDARD PLATE
# [6] = Test System: AMES SALMONELLA TYPHIMURIUM, Strain/Indicator: TA100, Metabolic Activation: RAT, LIVER, S-9, AROCLOR 1254, Method: STANDARD PLATE
# [7] = Test System: AMES SALMONELLA TYPHIMURIUM, Strain/Indicator: TA1535, Metabolic Activation: NONE, Method: STANDARD PLATE
# [8] = Test System: AMES SALMONELLA TYPHIMURIUM, Strain/Indicator: TA1535, Metabolic Activation: RAT, LIVER, S-9, AROCLOR 1254, Method: STANDARD PLATE
# [9] = Test System: AMES SALMONELLA TYPHIMURIUM, Strain/Indicator: TA1537, Metabolic Activation: NONE, Method: STANDARD PLATE
# [10] = Test System: AMES SALMONELLA TYPHIMURIUM, Strain/Indicator: TA1537, Metabolic Activation: RAT, LIVER, S-9, AROCLOR 1254, Method: STANDARD PLATE
# [11] = Test System: AMES SALMONELLA TYPHIMURIUM, Strain/Indicator: TA102, Metabolic Activation: NONE, Method: PREINCUBATION
smiles,measurement,setting,value
CC(=O)Nc1ccc(Oc2ccccc2)cc1,mutagenic call,[1],inactive; negative
same,mutagenic call,"Test System: AMES SALMONELLA TYPHIMURIUM, Strain/Indicator: TA100, Metabolic Activation: RAT, LIVER, S-9, KANECLOR 500, Method: STANDARD PLATE",active; positive
CNP(=S)(N1CC1)N1CC1,mutagenic call,"Test System: AMES SALMONELLA TYPHIMURIUM, Strain/Indicator: G46, Metabolic Activation: HOST MEDIATED, Method: STANDARD PLATE",active; positive
CC(=O)[C@]1(O)Cc2c(O)c3c(c(O)c2[C@@H](O[C@H]2C[C@H](N)[C@H](OC(C[C@H](C)O)O[C@@H](C)C=O)[C@H](C)O2)C1)C(=O)c1c(O)cccc1C3=O (some centres undefined),mutagenic call,[2],active; positive
same,mutagenic call,"Test System: AMES SALMONELLA TYPHIMURIUM, Strain/Indicator: TA98, Metabolic Activation: RAT, LIVER, S-9, Method: PREINCUBATION",active; positive
same,mutagenic call,"Test System: AMES SALMONELLA TYPHIMURIUM, Strain/Indicator: TA98, Metabolic Activation: S-9, Method: PREINCUBATION",active; positive
same,mutagenic call,[3],active; positive
same,mutagenic call,"Test System: AMES SALMONELLA TYPHIMURIUM, Strain/Indicator: TA100, Metabolic Activation: RAT, LIVER, S-9, Method: PREINCUBATION",active; positive
same,mutagenic call,"Test System: AMES SALMONELLA TYPHIMURIUM, Strain/Indicator: TA100, Metabolic Activation: S-9, Method: PREINCUBATION",active; positive
same,mutagenic call,"Test System: CHINESE HAMSTER V-79, Strain/Indicator: V-79/6-THIOGUANINE, Metabolic Activation: NONE",active; positive
same,mutagenic call,"Test System: CHINESE HAMSTER V-79, Strain/Indicator: V-79/6-THIOGUANINE, Metabolic Activation: NONE, Method: REPLATING",active; positive
COc1ccc2cc1Oc1ccc(cc1)C[C@H]1c3cc(c(OC)cc3CCN1C)Oc1c(OC)c(OC)cc3c1[C@H](C2)N(C)CC3,mutagenic call,[4],inactive; negative
same,mutagenic call,[5],active; positive
same,mutagenic call,[1],inactive; negative
same,mutagenic call,[6],inactive; negative
CCC(C)(C)OC,mutagenic call,[4],inactive; negative
same,mutagenic call,[5],inactive; negative
same,mutagenic call,[1],inactive; negative
same,mutagenic call,[6],inactive; negative
same,mutagenic call,[7],inactive; negative
same,mutagenic call,[8],inactive; negative
same,mutagenic call,[9],inactive; negative
same,mutagenic call,[10],inactive; negative
same,mutagenic call,"Test System: AMES SALMONELLA TYPHIMURIUM, Strain/Indicator: TA1538, Metabolic Activation: NONE, Method: STANDARD PLATE",inactive; negative
same,mutagenic call,"Test System: AMES SALMONELLA TYPHIMURIUM, Strain/Indicator: TA1538, Metabolic Activation: RAT, LIVER, S-9, AROCLOR 1254, Method: STANDARD PLATE",inactive; negative
CCC(=O)N(O)c1ccc2ccccc2c1,mutagenic call,[2],inactive; negative
same,mutagenic call,"Test System: AMES SALMONELLA TYPHIMURIUM, Strain/Indicator: TA98, Metabolic Activation: RAT, LIVER, CYTOSOL, Method: PREINCUBATION",inactive; negative
same,mutagenic call,"Test System: AMES SALMONELLA TYPHIMURIUM, Strain/Indicator: TA98, Metabolic Activation: RAT, LIVER, MICROSOMES, Method: PREINCUBATION",active; positive
O=C1C=CC(=O)C(c2ccccc2)=C1,mutagenic call,[2],inactive; negative
same,mutagenic call,"Test System: AMES SALMONELLA TYPHIMURIUM, Strain/Indicator: TA98, Metabolic Activation: RAT, LIVER, S-9, PHENOBARBITAL AND 5,6-BENZOFLAVONE, Method: PREINCUBATION",inactive; negative
same,mutagenic call,[3],inactive; negative
same,mutagenic call,"Test System: AMES SALMONELLA TYPHIMURIUM, Strain/Indicator: TA100, Metabolic Activation: RAT, LIVER, S-9, PHENOBARBITAL AND 5,6-BENZOFLAVONE, Method: PREINCUBATION",inactive; negative
same,mutagenic call,[11],inactive; negative
same,mutagenic call,"Test System: AMES SALMONELLA TYPHIMURIUM, Strain/Indicator: TA102, Metabolic Activation: RAT, LIVER, S-9, PHENOBARBITAL AND 5,6-BENZOFLAVONE, Method: PREINCUBATION",inactive; negative
same,mutagenic call,"Test System: AMES SALMONELLA TYPHIMURIUM, Strain/Indicator: TA104, Metabolic Activation: NONE, Method: PREINCUBATION",inactive; negative
same,mutagenic call,"Test System: AMES SALMONELLA TYPHIMURIUM, Strain/Indicator: TA104, Metabolic Activation: RAT, LIVER, S-9, PHENOBARBITAL AND 5,6-BENZOFLAVONE, Method: PREINCUBATION",inactive; negative
same,mutagenic call,"Test System: AMES SALMONELLA TYPHIMURIUM, Strain/Indicator: TA2637, Metabolic Activation: NONE, Method: PREINCUBATION",inactive; negative
same,mutagenic call,"Test System: AMES SALMONELLA TYPHIMURIUM, Strain/Indicator: TA2637, Metabolic Activation: RAT, LIVER, S-9, PHENOBARBITAL AND 5,6-BENZOFLAVONE, Method: PREINCUBATION",inactive; negative
same,mutagenic call,"Test System: CHINESE HAMSTER V-79, Strain/Indicator: V-79 (HGPRT)/6-THIOGUANINE, Metabolic Activation: NONE",inactive; negative
O=C1C=C[C@]2(O)c3c(ccc(O)c31)-c1ccc(O)c3c1[C@H]2C1OC1C3=O (some centres undefined),mutagenic call,[4],active; positive
same,mutagenic call,[5],active; positive
same,mutagenic call,[1],active; positive
same,mutagenic call,[6],active; positive
same,mutagenic call,[7],inactive; negative
same,mutagenic call,[8],inactive; negative
same,mutagenic call,[9],active; positive
same,mutagenic call,[10],active; positive
O=C1NS(=O)(=O)c2ccccc21,mutagenic call,"Test System: AMES SALMONELLA TYPHIMURIUM, Strain/Indicator: TA97A, Metabolic Activation: NONE, Method: PREINCUBATION",inactive; negative
same,mutagenic call,"Test System: AMES SALMONELLA TYPHIMURIUM, Strain/Indicator: TA97A, Metabolic Activation: RAT, LIVER, S-9, AROCLOR 1254, Method: PREINCUBATION",inactive; negative
same,mutagenic call,[11],inactive; negative
same,mutagenic call,"Test System: AMES SALMONELLA TYPHIMURIUM, Strain/Indicator: TA102, Metabolic Activation: RAT, LIVER, S-9, AROCLOR 1254, Method: PREINCUBATION",inactive; negative
C=CCN(CC=C)CCN(CC=C)CC=C.[Cl-].[Cl-].[Pd+2],mutagenic call,"Test System: AMES SALMONELLA TYPHIMURIUM, Strain/Indicator: TA92, Metabolic Activation: NONE, Method: STANDARD PLATE",inactive; negative
same,mutagenic call,[4],inactive; negative
same,mutagenic call,[1],inactive; negative
same,mutagenic call,"Test System: AMES SALMONELLA TYPHIMURIUM, Strain/Indicator: TA2410, Metabolic Activation: NONE, Method: STANDARD PLATE",inactive; negative
same,mutagenic call,"Test System: E. COLI, Strain/Indicator: TM6, Metabolic Activation: NONE, Method: STANDARD PLATE",active; positive
same,mutagenic call,"Test System: E. COLI, Strain/Indicator: TM9, Metabolic Activation: NONE, Method: STANDARD PLATE",active; positive
O=C(N=c1sn(C(=O)c2ccccc2)c2ccc([N+](=O)[O-])cc12)c1ccccc1,mutagenic call,"Test System: AMES SALMONELLA TYPHIMURIUM, Strain/Indicator: TA100, Metabolic Activation: S-9, Method: STANDARD PLATE",active; positive
Oc1cccc2cc3cccc(O)c3c(O)c12,mutagenic call,[1],inactive; negative
same,mutagenic call,[6],inactive; negative
same,mutagenic call,[7],inactive; negative
same,mutagenic call,[8],inactive; negative
same,mutagenic call,"Test System: E. COLI, Strain/Indicator: WP2 UVRA, Metabolic Activation: HAMSTER, LIVER, S-9, AROCLOR 1254, Method: STANDARD PLATE",inactive; negative
same,mutagenic call,"Test System: E. COLI, Strain/Indicator: WP2 UVRA, Metabolic Activation: HAMSTER, LIVER, S-9, Method: STANDARD PLATE",inactive; negative
same,mutagenic call,"Test System: E. COLI, Strain/Indicator: WP2 UVRA, Metabolic Activation: MOUSE, LIVER, S-9, AROCLOR 1254, Method: STANDARD PLATE",inactive; negative
same,mutagenic call,"Test System: E. COLI, Strain/Indicator: WP2 UVRA, Metabolic Activation: MOUSE, LIVER, S-9, Method: STANDARD PLATE",inactive; negative
same,mutagenic call,"Test System: E. COLI, Strain/Indicator: WP2 UVRA, Metabolic Activation: NONE, Method: STANDARD PLATE",inactive; negative
same,mutagenic call,"Test System: E. COLI, Strain/Indicator: WP2 UVRA, Metabolic Activation: RAT, LIVER, S-9, AROCLOR 1254, Method: STANDARD PLATE",inactive; negative
same,mutagenic call,"Test System: E. COLI, Strain/Indicator: WP2 UVRA, Metabolic Activation: RAT, LIVER, S-9, Method: STANDARD PLATE",inactive; negative
